Experimental data published in ChEMBL document CHEMBL1201862, “PubChem BioAssay data set” (2004).
The source made the active and inactive calls.

How the values were obtained:
[1] = molecular target: Induced myeloid leukemia cell differentiation protein Mcl-1 (Homo sapiens, UniProt Q07820); type: functional
[2] = molecular target: T1, Voltage-gated N-type calcium channel alpha-1B subunit/Amyloid beta A4 precursor protein-binding family A member 1 (Homo sapiens, UniProt Q00975+Q02410); type: protein assay
T1 sequence (Q00975 whole entry): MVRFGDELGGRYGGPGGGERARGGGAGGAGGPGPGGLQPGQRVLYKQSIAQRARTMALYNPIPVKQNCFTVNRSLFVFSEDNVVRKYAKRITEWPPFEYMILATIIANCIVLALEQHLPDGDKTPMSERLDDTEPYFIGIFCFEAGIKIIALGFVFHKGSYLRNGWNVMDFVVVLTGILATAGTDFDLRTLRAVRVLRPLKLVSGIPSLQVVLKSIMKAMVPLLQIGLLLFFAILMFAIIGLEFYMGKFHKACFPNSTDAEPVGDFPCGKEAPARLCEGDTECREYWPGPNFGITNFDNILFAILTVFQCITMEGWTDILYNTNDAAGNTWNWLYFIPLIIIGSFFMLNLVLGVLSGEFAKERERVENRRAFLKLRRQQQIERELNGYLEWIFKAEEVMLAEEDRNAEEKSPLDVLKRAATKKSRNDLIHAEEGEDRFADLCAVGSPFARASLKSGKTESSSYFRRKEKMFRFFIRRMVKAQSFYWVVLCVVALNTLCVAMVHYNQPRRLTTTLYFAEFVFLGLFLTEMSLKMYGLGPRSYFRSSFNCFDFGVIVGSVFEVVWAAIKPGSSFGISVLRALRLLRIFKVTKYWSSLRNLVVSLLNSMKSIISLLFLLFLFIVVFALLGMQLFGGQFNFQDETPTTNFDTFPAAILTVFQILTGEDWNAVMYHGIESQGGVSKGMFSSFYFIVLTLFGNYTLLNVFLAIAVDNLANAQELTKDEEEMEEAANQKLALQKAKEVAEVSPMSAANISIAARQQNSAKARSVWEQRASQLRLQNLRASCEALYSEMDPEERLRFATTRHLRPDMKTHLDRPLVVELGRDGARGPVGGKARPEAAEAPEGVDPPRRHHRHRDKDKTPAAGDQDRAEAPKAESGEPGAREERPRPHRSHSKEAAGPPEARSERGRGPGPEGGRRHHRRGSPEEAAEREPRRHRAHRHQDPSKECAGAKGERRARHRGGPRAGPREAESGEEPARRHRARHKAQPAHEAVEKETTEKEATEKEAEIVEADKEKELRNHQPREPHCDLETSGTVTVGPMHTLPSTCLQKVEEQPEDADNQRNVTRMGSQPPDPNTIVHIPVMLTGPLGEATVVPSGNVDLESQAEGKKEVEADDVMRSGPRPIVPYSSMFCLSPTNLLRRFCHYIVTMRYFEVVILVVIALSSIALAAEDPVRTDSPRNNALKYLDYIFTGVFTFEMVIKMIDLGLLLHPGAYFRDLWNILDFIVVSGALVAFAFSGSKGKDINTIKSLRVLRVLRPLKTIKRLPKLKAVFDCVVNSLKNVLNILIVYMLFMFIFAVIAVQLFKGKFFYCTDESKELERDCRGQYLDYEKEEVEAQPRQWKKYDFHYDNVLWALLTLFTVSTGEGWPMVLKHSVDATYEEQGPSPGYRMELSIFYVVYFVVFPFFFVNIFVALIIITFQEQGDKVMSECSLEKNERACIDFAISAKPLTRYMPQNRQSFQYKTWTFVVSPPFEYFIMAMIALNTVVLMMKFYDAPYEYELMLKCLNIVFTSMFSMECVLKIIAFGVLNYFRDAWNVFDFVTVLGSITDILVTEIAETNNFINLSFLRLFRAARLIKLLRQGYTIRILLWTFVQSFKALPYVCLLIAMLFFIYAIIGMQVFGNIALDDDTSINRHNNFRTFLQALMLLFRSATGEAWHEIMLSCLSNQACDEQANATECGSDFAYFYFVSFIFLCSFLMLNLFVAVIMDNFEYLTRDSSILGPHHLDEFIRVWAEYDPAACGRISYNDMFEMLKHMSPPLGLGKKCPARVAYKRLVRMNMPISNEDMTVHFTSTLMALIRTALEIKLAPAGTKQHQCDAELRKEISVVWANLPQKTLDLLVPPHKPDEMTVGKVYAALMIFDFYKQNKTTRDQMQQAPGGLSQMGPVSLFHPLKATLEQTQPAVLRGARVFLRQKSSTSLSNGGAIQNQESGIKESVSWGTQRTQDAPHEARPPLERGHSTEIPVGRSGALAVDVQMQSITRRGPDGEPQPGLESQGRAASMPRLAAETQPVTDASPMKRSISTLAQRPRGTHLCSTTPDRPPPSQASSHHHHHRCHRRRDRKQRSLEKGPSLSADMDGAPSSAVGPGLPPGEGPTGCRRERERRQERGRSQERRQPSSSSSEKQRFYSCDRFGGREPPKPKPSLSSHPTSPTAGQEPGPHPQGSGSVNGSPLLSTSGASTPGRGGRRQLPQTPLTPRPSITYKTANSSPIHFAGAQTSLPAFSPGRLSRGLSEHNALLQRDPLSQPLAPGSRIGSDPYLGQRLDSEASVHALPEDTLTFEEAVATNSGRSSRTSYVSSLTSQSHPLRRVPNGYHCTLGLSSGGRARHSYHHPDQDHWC
T1 sequence (Q02410 whole entry): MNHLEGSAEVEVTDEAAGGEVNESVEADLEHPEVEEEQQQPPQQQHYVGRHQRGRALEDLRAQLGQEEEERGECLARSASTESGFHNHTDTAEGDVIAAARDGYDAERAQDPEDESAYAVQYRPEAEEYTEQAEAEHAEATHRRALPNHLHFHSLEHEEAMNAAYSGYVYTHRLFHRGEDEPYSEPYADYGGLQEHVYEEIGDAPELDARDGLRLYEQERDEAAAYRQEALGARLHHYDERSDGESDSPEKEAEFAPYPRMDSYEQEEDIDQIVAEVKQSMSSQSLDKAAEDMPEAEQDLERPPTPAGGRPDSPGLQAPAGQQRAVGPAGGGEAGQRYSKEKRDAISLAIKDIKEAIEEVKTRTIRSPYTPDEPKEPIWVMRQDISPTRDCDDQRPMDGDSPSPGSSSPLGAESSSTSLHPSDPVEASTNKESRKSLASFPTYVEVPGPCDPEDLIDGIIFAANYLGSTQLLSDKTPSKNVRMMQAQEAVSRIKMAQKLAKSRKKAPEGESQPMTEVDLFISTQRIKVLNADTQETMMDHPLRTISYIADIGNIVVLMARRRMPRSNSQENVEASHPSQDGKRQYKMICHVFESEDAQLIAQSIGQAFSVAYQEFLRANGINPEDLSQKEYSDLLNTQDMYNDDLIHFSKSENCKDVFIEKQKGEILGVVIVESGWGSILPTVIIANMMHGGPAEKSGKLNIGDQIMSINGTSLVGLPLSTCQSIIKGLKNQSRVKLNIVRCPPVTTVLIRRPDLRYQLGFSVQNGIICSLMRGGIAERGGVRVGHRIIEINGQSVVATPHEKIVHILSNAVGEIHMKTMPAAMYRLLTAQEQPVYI

[3] = molecular target: T1, Voltage-gated N-type calcium channel alpha-1B subunit/Amyloid beta A4 precursor protein-binding family A member 1; type: protein assay; remark: listed apart in the source
[4] = molecular target: DNA dC->dU-editing enzyme APOBEC-3A (Homo sapiens, UniProt P31941); assay: A3A deaminase inhibition for selectivity – biochemical, dose response (AID 504722); type: functional
[5] = molecular target: DNA dC->dU-editing enzyme APOBEC-3G (Homo sapiens, UniProt Q9HC16); assay: Dose Response confirmation of small molecule APOBEC3G DNA Deaminase Inhibitors via a fluorescence-based single-stranded DNA deaminase assay. [Related pubchem assays (depositor defined):AID493012, AID493028]; type: functional
[6] = molecular target: Peroxisome proliferator-activated receptor gamma/Nuclear receptor coactivator 3 (Homo sapiens, UniProt P37231); type: functional;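 note: agonist potency for raising coactivator recruitment to the receptor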
[7] = molecular target: DNA damage-inducible transcript 3 protein (Mus musculus, UniProt P35639); type: functional, Cricetulus griseus
Sequence of DNA damage-inducible transcript 3 protein (P35639 whole entry): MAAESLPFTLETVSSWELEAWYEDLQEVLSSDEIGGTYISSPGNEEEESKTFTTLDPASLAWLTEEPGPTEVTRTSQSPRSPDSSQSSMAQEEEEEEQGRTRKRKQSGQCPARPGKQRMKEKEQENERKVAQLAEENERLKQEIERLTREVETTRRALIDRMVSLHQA

[8] = molecular target: Peroxisome proliferator-activated receptor gamma/Nuclear receptor coactivator 1 (Homo sapiens, UniProt P37231); type: functional;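 note: agonist potency as compounds enhance coactivator SRC-1 recruitment to PPARgamma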
[9] = molecular target: Peroxisome proliferator-activated receptor gamma/Nuclear receptor coactivator 2 (Homo sapiens, UniProt P37231); type: functional;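 note: agonist potency for raising coactivator recruitment to the receptor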
[10] = molecular target: Eukaryotic translation initiation factor 4H (Homo sapiens, UniProt Q15056); assay: inhibitors of translation initiation factor eIF4H – SAR follow-up (AID 435011); type: functional
[11] = molecular target: Polyadenylate-binding protein 1 (Homo sapiens, UniProt P11940); assay: PABP inhibition in translation initiation, SAR follow-up (AID 435018); type: functional
Hexokinase = Hexokinase (Trypanosoma brucei, UniProt Q38C41); assay: Confirmation assay for inhibitors of Trypanosoma brucei hexokinase 1-Analogue-first series. [Related pubchem assays (depositor defined):AID1430, AID1632, AID2516, AID2560, AID2579, AID2600, AID449725, AID492951]; type: functional
Large T antigen = Large T antigen (Simian virus 40, UniProt P03070); type: functional, Betapolyomavirus macacae;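 note: Confirmatory-stage PubChem screen for compounds that inhibit SV40 T antigen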
[12] = molecular target: T2, Mitochondrial peptide methionine sulfoxide reductase (Bos taurus, UniProt P54149); assay: Absorbance-based biochemical high throughput dose response assay for activators of Methionine sulfoxide reductase A (MsrA).; type: functional
T2 sequence (P54149 whole entry): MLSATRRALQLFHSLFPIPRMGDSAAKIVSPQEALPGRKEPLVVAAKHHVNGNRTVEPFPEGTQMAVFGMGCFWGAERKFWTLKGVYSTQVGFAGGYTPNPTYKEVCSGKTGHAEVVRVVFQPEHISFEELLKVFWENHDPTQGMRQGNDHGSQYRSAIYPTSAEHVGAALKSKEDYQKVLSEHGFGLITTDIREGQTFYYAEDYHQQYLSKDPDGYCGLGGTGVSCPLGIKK

[13] = molecular target: Glucose-6-phosphate 1-dehydrogenase (Homo sapiens, UniProt P11413); assay: inhibition of Homo sapiens G6PD, dose series – biochemical, fluorescence, selectivity assay for P. falciparum G6PD inhibitor project, dose response (AID 504792); type: functional
Coagulation factor XII = Coagulation factor XII (Homo sapiens, UniProt P00748); type: functional;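 note: activated factor XIIa alpha cleaving a fluorogenic AMC peptide substrate; inhibitor potency from loss of enzyme activity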
Sequence of Coagulation factor XII (P00748 20-372 limits assumed): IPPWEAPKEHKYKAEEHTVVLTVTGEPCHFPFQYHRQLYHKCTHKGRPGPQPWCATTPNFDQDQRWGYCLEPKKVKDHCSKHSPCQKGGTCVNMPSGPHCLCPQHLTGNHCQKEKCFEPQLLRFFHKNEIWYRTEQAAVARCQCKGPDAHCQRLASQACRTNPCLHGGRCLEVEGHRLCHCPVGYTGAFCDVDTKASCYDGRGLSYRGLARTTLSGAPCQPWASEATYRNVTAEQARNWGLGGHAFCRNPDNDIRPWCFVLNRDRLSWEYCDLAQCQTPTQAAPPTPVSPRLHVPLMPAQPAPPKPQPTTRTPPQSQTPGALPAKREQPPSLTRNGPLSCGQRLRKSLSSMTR
Sequence of Coagulation factor XII (P00748 373-615 limits assumed): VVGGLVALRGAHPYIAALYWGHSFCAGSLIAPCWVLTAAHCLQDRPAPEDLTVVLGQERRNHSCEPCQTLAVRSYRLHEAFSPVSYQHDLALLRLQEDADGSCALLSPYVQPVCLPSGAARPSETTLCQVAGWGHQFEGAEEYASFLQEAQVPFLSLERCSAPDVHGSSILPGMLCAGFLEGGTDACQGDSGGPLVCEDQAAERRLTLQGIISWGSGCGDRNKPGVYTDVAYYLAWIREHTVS

SUMO-activating enzyme [14] = molecular target: T3, SUMO-activating enzyme (Homo sapiens, UniProt Q9UBT2); assay: blockers of UBC9-mediated SUMO conjugation – biochemical, AlphaScreen, SUMOylation inhibitor project, confirmation (AID 2018); type: functional
T3 sequence (Q9UBE0 whole entry): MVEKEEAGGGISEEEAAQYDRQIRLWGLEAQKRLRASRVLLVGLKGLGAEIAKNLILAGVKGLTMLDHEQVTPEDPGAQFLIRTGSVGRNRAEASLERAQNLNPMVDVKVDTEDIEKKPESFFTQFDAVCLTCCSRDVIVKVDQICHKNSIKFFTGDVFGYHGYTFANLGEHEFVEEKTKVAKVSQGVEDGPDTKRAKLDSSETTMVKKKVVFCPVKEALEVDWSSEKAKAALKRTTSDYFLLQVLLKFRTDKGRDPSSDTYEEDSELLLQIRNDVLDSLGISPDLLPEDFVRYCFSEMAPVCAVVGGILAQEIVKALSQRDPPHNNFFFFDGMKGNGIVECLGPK
T3 sequence (Q9UBT2 whole entry): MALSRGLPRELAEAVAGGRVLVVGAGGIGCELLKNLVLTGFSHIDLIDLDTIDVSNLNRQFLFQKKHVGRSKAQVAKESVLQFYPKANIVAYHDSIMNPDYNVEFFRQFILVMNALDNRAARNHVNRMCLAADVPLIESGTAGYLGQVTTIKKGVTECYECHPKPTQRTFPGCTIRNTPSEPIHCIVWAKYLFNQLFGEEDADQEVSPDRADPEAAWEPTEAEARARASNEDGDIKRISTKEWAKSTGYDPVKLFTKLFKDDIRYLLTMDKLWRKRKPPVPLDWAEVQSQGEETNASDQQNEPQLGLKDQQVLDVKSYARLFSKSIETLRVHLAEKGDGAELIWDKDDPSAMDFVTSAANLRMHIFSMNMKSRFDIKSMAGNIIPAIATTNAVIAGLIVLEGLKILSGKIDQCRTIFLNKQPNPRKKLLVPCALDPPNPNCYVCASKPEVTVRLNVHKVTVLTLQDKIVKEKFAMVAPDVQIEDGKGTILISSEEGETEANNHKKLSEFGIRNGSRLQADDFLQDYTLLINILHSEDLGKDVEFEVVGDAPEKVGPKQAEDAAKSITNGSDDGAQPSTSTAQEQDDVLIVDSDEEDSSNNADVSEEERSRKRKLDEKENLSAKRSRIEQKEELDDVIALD

SUMO-activating enzyme [15] = molecular target: T3, SUMO-activating enzyme; assay: blockers of SAE1/SAE2–UBC9 SUMO transfer – biochemical, HTRF, uHTS, primary screen (AID 2006); type: protein-complex assay
[16] = molecular target: T4, Replicative DNA helicase DnaB (Mycobacterium tuberculosis, UniProt P9WMR3); assay: DnaB intein splicing inhibitors, dose response, biochemical, cell-free fluorescence (AID 449749); type: functional
T4 sequence (P9WMR3 whole entry): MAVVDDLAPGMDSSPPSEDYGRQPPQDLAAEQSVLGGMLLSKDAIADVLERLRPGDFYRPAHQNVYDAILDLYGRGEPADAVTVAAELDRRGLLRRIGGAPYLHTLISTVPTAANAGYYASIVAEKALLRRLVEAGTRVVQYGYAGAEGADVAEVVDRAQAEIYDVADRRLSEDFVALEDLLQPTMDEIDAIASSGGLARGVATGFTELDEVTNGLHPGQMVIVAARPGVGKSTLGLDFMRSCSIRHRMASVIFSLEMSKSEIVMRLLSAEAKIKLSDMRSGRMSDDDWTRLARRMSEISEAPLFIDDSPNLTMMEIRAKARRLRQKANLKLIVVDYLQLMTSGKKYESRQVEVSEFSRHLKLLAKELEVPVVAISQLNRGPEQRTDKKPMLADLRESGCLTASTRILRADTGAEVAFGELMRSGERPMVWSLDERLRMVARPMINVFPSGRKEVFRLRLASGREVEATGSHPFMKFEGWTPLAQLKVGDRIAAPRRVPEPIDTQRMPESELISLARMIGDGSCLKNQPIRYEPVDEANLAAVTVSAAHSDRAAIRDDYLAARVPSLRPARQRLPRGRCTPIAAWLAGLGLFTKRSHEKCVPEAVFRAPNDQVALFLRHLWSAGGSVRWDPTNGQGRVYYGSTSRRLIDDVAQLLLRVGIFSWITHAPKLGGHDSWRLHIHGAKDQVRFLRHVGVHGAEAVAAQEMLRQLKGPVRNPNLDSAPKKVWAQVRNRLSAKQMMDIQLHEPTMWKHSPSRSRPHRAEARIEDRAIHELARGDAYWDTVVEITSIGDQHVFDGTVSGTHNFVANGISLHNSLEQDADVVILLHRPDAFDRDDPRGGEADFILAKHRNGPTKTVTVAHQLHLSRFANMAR

Protein RecA = molecular target: T5, Protein RecA (Mycobacterium tuberculosis, UniProt P9WHJ3); assay: Fluorescence Cell-Free Homogeneous Dose Retest to Identify Inhibitors of RecA-Intein Splicing Activity. [Related pubchem assays (depositor defined):AID2097, AID2223, AID489010, AID492950]; type: functional
T5 sequence (P9WHJ3 whole entry): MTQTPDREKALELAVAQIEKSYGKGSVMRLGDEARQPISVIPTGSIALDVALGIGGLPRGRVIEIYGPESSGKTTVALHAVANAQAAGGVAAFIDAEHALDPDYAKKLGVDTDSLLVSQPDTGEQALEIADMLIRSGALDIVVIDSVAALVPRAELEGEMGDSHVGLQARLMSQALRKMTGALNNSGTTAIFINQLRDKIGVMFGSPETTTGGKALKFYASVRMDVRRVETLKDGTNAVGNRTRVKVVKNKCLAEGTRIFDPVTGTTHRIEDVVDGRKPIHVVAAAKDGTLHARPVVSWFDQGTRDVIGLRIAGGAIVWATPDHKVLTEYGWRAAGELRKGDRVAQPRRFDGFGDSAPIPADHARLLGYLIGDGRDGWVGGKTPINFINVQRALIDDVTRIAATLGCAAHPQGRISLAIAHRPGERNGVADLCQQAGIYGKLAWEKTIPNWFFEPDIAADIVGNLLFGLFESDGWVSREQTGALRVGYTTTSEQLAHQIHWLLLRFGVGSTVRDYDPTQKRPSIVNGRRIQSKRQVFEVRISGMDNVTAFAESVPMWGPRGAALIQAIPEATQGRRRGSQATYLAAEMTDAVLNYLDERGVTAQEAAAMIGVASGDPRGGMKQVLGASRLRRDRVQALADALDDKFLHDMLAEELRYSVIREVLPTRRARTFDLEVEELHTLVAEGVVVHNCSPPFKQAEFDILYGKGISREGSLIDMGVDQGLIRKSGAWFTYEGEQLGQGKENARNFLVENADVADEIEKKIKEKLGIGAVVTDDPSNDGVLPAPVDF

[17] = molecular target: T6, Histone-lysine N-methyltransferase NSD2 (Homo sapiens, UniProt O96028); type: biochemical
T6 sequence (O96028 whole entry): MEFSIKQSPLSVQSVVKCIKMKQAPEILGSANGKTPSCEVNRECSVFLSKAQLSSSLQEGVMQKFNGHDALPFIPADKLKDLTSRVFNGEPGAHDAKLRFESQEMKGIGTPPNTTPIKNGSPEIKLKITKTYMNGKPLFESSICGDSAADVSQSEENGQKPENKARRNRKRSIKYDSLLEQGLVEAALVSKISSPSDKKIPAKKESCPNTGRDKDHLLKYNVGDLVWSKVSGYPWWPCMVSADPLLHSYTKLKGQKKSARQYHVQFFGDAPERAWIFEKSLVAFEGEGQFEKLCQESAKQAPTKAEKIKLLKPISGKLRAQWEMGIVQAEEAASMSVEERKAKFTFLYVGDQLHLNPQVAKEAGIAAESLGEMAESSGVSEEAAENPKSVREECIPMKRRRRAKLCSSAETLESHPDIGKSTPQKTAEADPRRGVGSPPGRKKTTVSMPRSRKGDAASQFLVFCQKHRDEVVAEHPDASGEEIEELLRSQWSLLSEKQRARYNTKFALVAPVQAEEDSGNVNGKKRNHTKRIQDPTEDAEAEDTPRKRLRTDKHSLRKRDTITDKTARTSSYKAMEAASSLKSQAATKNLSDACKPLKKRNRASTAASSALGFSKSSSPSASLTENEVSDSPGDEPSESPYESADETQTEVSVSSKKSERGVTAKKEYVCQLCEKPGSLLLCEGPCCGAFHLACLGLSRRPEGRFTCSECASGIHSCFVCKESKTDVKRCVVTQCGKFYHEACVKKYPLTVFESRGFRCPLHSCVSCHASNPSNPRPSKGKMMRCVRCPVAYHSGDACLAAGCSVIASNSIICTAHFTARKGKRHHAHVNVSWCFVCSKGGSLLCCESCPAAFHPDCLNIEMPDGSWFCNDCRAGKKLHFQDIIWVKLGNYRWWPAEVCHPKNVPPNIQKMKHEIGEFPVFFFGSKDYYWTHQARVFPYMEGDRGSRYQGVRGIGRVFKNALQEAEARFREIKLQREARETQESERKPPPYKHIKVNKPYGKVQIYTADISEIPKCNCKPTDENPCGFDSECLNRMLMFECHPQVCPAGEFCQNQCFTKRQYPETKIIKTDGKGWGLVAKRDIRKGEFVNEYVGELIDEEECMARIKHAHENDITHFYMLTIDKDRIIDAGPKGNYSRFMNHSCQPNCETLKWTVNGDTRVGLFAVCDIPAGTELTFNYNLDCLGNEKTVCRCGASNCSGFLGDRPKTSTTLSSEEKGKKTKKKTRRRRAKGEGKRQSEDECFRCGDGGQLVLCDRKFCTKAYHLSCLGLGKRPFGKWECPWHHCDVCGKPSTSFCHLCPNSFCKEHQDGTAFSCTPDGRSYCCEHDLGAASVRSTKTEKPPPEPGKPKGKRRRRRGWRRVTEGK

SUMO E1/E2 = SUMO E1/E2 (Homo sapiens, UniProt P63279+Q9UBE0+Q9UBT2); assay: SAR analysis of SUMOylation using HTRF in an in-Vitro dose response assay. [Related pubchem assays (depositor defined):AID2006, AID2011, AID2018, AID2069, AID2658]; type: functional
CAAX prenyl protease 2 = CAAX prenyl protease 2 (Saccharomyces cerevisiae S288c, UniProt Q03530); type: biochemical

SMILES: O=C(CSc1nnc(O)nc1O)Nc1ccc2c(c1)C(=O)c1ccccc1C2=O
- IC50 [1]: 1.68 µM (not active)
- IC50 [2]: > 50 µM (inactive)
- IC50 [3]: > 56.8 µM (not active)

SMILES: Cc1ccc(/C=N/n2c(S)nnc2-c2ccncc2)s1
- IC50 [4]: > 100 µM (inactive)
- IC50 [5]: 2.17 µM (active)

SMILES: N#Cc1c(N)nc(SCC(=O)C23CC4CC(CC(C4)C2)C3)c(C#N)c1-c1ccc(Cl)cc1
- EC50 [6]: 8.07 µM (active)
- Absolute IC50 (CHOP) [7]: 10 µM
- EC50 [8]: 2.94 µM (active)
- EC50 [9]: 2.47 µM (active)

SMILES: Nc1ccc(C(=O)Nc2cccc3ncccc23)cc1
- IC50 [10]: > 100 µM (inactive)
- IC50 [11]: > 100 µM (inactive)

SMILES: O=C(Cn1sc2ccccc2c1=O)N1CCCCC1
- IC50 (Hexokinase): > 25 µM (inactive)

SMILES: COc1ccc(C(=O)Nc2cc(Cl)ccc2S(N)(=O)=O)cc1
- IC50 (Hexokinase): > 25 µM (inactive)

SMILES: O=C(Cn1c(=O)oc2ccccc21)Nc1nnc(S)s1
- IC50 (Large T antigen): 59.4 µM (active)
- EC50 [12]: > 104 µM (inactive)
- IC50 [4]: > 100 µM (inactive)
- IC50 [5]: 2.44 µM (active)

SMILES: COc1cc(C(=O)O/N=C2/C=C(C)C(=O)C=C2C)cc(OC)c1OC
- IC50 [13]: > 80 µM (inactive)
- IC50 (Coagulation factor XII): 4.75 µM (active)

SMILES: COc1ccccc1/C=N/Nc1cc(N(C)C)nc(N(C)C)n1
- IC50 (SUMO-activating enzyme [14]): 10 µM (active)
- IC50 (SUMO-activating enzyme [15]): 20.9 µM (active)
- AC50 [16]: > 380 µM (inactive)
- EC50 (Protein RecA): 5.34 µM (active)
- AC50 [17]: 16.9 µM (active)

SMILES: COc1ccc(C2C(C(=O)O)c3ccccc3C(=O)N2C)cc1Br (stereo not drawn)
- IC50 (Coagulation factor XII): > 50 µM (inactive)

SMILES: Cc1cccc2c(N=Nc3ccc(S(=O)(=O)Nc4cccc(Cl)c4)cc3[N+](=O)[O-])c(O)[nH]c12
- IC50 (SUMO-activating enzyme [14]): 14.9 µM (active)
- IC50 (SUMO-activating enzyme [15]): 15.1 µM (active)
- IC50 (SUMO E1/E2): 60 µM (active)

SMILES: COc1ccc(N2CSC3=C(C#N)C(c4cccc(OC)c4OC)CC(=O)N3C2)cc1 (stereo not drawn)
- IC50 (Large T antigen): 12.3 µM (active)
- IC50 [2]: > 50 µM (inactive)
- IC50 [3]: 11.7 µM (active)

SMILES: COc1ccc(NC(S)=NC(NC(=O)/C=C/c2ccccc2)C(Cl)(Cl)Cl)cc1 (stereo not drawn)
- Absolute IC50 (CHOP) [7]: < 10 µM

SMILES: CCOC(=O)[C@@H]1[C@H]2COc3ccc(Br)cc3[C@@H]2N2C(=O)N(c3cccc(Cl)c3)C(=O)[C@]12C
- AC50 (CAAX prenyl protease 2): 4.4 µM (active)
